Data published in paper PMC11313193, “Which Constituents Determine the Antioxidant Activity and Cytotoxicity of Garlic? Role of Organosulfur Compounds and Phenolics” (International Journal of Molecular Sciences, 2024).
Values after ≈ are worked out from the molar mass of the structure shown. Where two headings read alike, the source gives them in different places.

Tests used:
[1] = system: PEO1 ovarian cancer cells; experiment: Cytotoxicity (Neutral Red), PEO1 cells; type: cell-based, human; details: for Concentration at which viability of PEO1 cells was lowered: p < 0.05; for IC50: Homo sapiens, read-out: IC50 PEO1
Description: (§1) The PEO1 cells, SKOV-3 cells, and MRC-5 cells were grown at 37 °C and 5% CO2 in RPMI + GlutaMAX medium, McCoy’s 5A medium, and the DMEM + GlutaMAX medium, respectively. The media were supplemented with 10% heat-inactivated fetal calf serum and penicillin/streptomycin. The cell viability was evaluated using the Trypan Blue exclusion test.
(§2) In the cytotoxicity experiments, cells were grown in wells of sterile 96-well plates. The seeding density was 1 × 10^4 for SKOV-3 and MRC-5 cells and 1.5 × 10^4 for PEO1 cells. The cells were allowed to grow in the incubator for 24 h. Then, the medium was removed and new medium with an examined compound was added. The stock solutions of the compounds studied diluted with the appropriate cell medium were filtered before the addition to the cells using 0.22 µm filters. No more than 0.02% of DMSO was present in the media, and it had no discernible impact on the treated cells. Cells not exposed to any compound served as a control. After another 24 h incubation, the medium was gently aspirated, and the wells were added with 2% sterile Neutral Red solution (100 µL). The plates were then incubated (37 °C, 5% CO2) for one hour. The Neutral Red solution was aspirated, and the wells were washed two times with warm (37 °C) PBS. Subsequently, 100 µL of a permeabilization mixture (water/ethanol/glacial acetic acid, 50/49/1, v/v/v) was introduced to each well. The plates were shaken at 700 rpm for 20 min and absorbance was read at a wavelength of 540 nm against 620 nm.

MDA-MB-231 cells [2] = system: MDA-MB-231 cells; design: method as in PMID 29048370; details: read-out: Concentration decreasing the viability of MDA-MB-231 cells (by 50%); cited from earlier work
[3] = system: HT-1080 fibrosarcoma cells; design: method as in PMID 21116690; details: read-out: Concentration decreasing the viability of HT-1080 cells (by 50%); cited from earlier work
MRC-5 fibroblasts = experiment: Cytotoxicity (Neutral Red), MRC-5 fibroblasts; type: cell-based, human; details: for Concentration at which viability of MRC-5 cells was lowered: p < 0.05; for IC50: Homo sapiens, read-out: IC50 MRC-5
Description: as §1, §2

[4] = ABTS^● decolorization assay; details: 30 min incubation at room temperature, absorbance at 734 nm
Description: A modification of the ABTS^● decolorization assay was employed. Briefly, various volumes of solutions of the studied compounds were introduced to wells of a 96-well microplate, each prefilled 200 μL of ABTS^● solution. […] The drop in absorbance after 30 min incubation at room temperature was read as a measure of the antioxidant activity.
(§3) All assays were standardized with respect to Trolox. The antioxidant activity was calculated in each case as a ratio of the slope of the dependence of absorbance change on the concentration of a studied compound to the slope of the dependence of absorbance change of standard samples concerning Trolox on the concentration of Trolox. Antioxidant activities were expressed in moles of Trolox equivalents (TE)/mol of a studied compound, as described previously.

[5] = system: SKOV-3 ovarian cancer cells; experiment: Cytotoxicity (Neutral Red), SKOV-3 cells; type: cell-based, human; details: for IC50: Homo sapiens, read-out: IC50 SKOV-3; for Concentration at which viability of SKOV-3 cells was lowered: p < 0.05
Description: as §1, §2

[6] = DPPH^● decolorization assay; details: 30 min at ambient temperature in the dark, absorbance at 517 nm
Description: The assay was performed as described in a previous article. Briefly, increasing volumes of solutions of the studied compounds were introduced to wells of a 96-well microplate, each with 200 μL of 0.3 mM DPPH^● solution in methanol. The reaction was allowed to proceed for 30 min at ambient temperature in the dark, and absorbance at 517 nm was read. The absorbance decrease was a measure of the antioxidant activity.
as §3

[7] = system: cervical cancer HeLa cells; design: method as in PMID 21199742; details: after 24 h exposure; read-out: Concentration decreasing the viability of HeLa cells by 50%; cited from earlier work
[8] = Ferric reducing antioxidant power (FRAP) assay; details: 30 min at ambient temperature, pH 3.6, absorbance at 593 nm
Description: The method proposed by Benzie and Strain [91] was employed with a slight modification. Briefly, increasing volumes of solutions of the studied compounds were added to wells of a 96-well microplate prefilled with 200 μL of the working solution composed of 0.3 M acetate buffer, pH 3.6 (10 volumes), 10 mM 2,4,6-tris(2-pyridyl)-s-triazine (TPTZ), in 40 mM HCl (1 volume) and 20 mM FeCl3 (1 volume), was prepared immediately before use. After 30 min incubation at ambient temperature and the absorbance of the Fe^2+-TPTZ complex was read at 593 nm.
as §3

osteosarcoma MG63 cells = system: osteosarcoma MG63 cells; design: method as in PMID 27158383; details: after 48 h; read-out: Concentration decreasing viability of MG63 cells to 50%; cited from earlier work
MDA-MB-231 cells [9] = system: MDA-MB-231 cells; design: method as in PMID 27177074; details: 100 μM; cited from earlier work
osteosarcoma 143B cells = system: osteosarcoma 143B cells; design: method as in PMID 27158383; details: after 48 h; read-out: Concentration decreasing viability of 143B cells to 50%; cited from earlier work
[10] = system: PC-3 prostate cancer cells; design: method as in PMID 26124008; details: read-out: Concentration decreasing viability of PC-3 cells to 50%; cited from earlier work
[11] = system: LNCaP prostate cancer cells; design: method as in PMID 26124008; details: read-out: Concentration decreasing viability of LNCaP cells to 50%; cited from earlier work
[12] = system: dRLh-84 rat hepatoma cells; design: method as in PMID 8593472; details: cited from earlier work
[13] = system: HL-60RG human promyelocytic leukemia cells; design: method as in PMID 8593472; details: cited from earlier work
[14] = system: PLC/PRF/5 human hepatoma cells; design: method as in PMID 8593472; details: cited from earlier work
[15] = system: P388-D1 mouse lymphoid cancer cells; design: method as in PMID 8593472; details: cited from earlier work
[16] = system: PC-3 prostate cancer cells; design: method as in PMID 19589639; details: 48 h exposure, cited from earlier work
[17] = system: HTB-35 cervical cancer cells; design: method as in PMID 24843386; details: range given for HeLa and HTB-35, converted; cited from earlier work
[18] = system: LNCaP prostate cancer cells; design: method as in PMID 19589639; details: 48 h exposure, cited from earlier work
[19] = system: KB human epidermoid carcinoma cells; design: method as in PMID 8593472; details: cited from earlier work
[20] = system: DUI45 prostate cancer cells; design: method as in PMID 19589639; details: 48 h exposure, cited from earlier work
[21] = system: HeLa cervical cancer cells; design: method as in PMID 24843386; details: range given for HeLa and HTB-35, converted; cited from earlier work
[22] = system: HeLa human epithelial carcinoma cells; design: method as in PMID 8593472; details: cited from earlier work
[23] = system: A549 human adenocarcinomic alveolar basal epithelial cells; design: method as in PMID 14688022; details: cited from earlier work
[24] = system: NUGC-2 gastric cancer cell line; design: method as in PMID 2298289; details: range given for four gastric cancer cell lines; read-out: IC50 NUGC-2 gastric cancer cells; cited from earlier work
[25] = system: colorectal cancer CACO-2 cells; design: method as in PMID 25829782; details: cited from earlier work
[26] = system: colorectal cancer SW-620 cells; design: method as in PMID 25829782; details: cited from earlier work
MCF-7 cells = system: MCF-7 cells; design: method as in PMID 24223637; details: 40 μg/mL (132 μM); cited from earlier work
[27] = system: MKN-7 gastric cancer cell line; design: method as in PMID 2298289; details: range given for four gastric cancer cell lines; read-out: IC50 MKN-7 gastric cancer cells; cited from earlier work
[28] = system: breast cancer HCC1937 cells; design: method as in PMID 16619521; details: 100 μM; cited from earlier work
[29] = system: HGC-27 gastric cancer cell line; design: method as in PMID 2298289; details: range given for four gastric cancer cell lines; read-out: IC50 HGC-27 gastric cancer cells; cited from earlier work
[30] = system: MKN-28 gastric cancer cell line; design: method as in PMID 2298289; details: range given for four gastric cancer cell lines; read-out: IC50 MKN-28 gastric cancer cells; cited from earlier work
[31] = PEO1, 24 h exposure, Neutral Red
[32] = SK-OV-3, 24 h exposure, Neutral Red

O=C(O)/C=C/c1ccc(O)c(O)c1 [Caffeic acid, caffeic acid]
Concentration at which viability of PEO1 cells was lowered ([1]; 24 h exposure): 300 to 1000 µM
IC50 [1, 31]: 245 µM
IC50 (MDA-MB-231 cells [2]): 151 µM
IC50 [3]: 30 µM
Concentration at which viability of MRC-5 cells was lowered (MRC-5 fibroblasts; 24 h exposure): 1000 µM
Antioxidant activity, ABTS^● Decolorization [4]: 0.771 ± 0.066 mol Trolox equivalents (TE)/mol compound
Concentration range with no significant decrease in viability of SKOV-3 cells ([5]; 24 h exposure): up to 1000 µM
IC50 [5, 32]: 1320 µM
Antioxidant activity, DPPH^● Decolorization [6]: 0.001 ± 0.006 mol Trolox equivalents (TE)/mol compound
IC50 [7]: ~2000 µM
Antioxidant activity, FRAP [8]: 0.019 ± 0.002 mol Trolox equivalents (TE)/mol compound

COc1cc(/C=C/C(=O)O)ccc1O [Ferulic acid, ferulic acid]
Concentration range with no significant decrease in viability of PEO1 cells ([1]; 24 h exposure): 0 to 1000 µM
IC50 (osteosarcoma MG63 cells): 66 µM
Viability of MDA-MB-231 cells (decreased to) (MDA-MB-231 cells [9]): about 75%
Concentration range with no significant decrease in viability of MRC-5 cells (MRC-5 fibroblasts; 24 h exposure): 0 to 1000 µM
Antioxidant activity, ABTS^● Decolorization [4]: 1.409 ± 0.096 mol Trolox equivalents (TE)/mol compound
IC50 (osteosarcoma 143B cells): 60 µM
Concentration range with no significant decrease in viability of SKOV-3 cells ([5]; 24 h exposure): 0 to 1000 µM
Antioxidant activity, DPPH^● Decolorization [6]: 0.185 ± 0.070 mol Trolox equivalents (TE)/mol compound
IC50 [10]: 300 µM
IC50 [11]: 500 µM
Antioxidant activity, FRAP [8]: 0.554 ± 0.017 mol Trolox equivalents (TE)/mol compound

O=C(O)c1cc(O)c(O)c(O)c1 [Gallic acid, gallic acid]
Concentration at which viability of PEO1 cells was lowered ([1]; 24 h exposure): 200 to 1000 µM
IC50 [1, 31]: 19 µM
IC50 dRLh-84 cells [12]: 6.2 mg/L (≈ 36.4 µM)
IC50 ([12]; converted from μg/mL): 34 µM
IC50 HL-60RG cells [13]: 5.4 mg/L (≈ 31.7 µM)
IC50 ([13]; converted from μg/mL): 30 µM
Concentration at which viability of MRC-5 cells was lowered (MRC-5 fibroblasts; 24 h exposure): 200 to 1000 µM
IC50 (MRC-5 fibroblasts; MRC5, 24 h exposure, Neutral Red): 243 µM
IC50 PLC/PRF/5 cells [14]: 6.6 mg/L (≈ 38.8 µM)
IC50 ([14]; converted from μg/mL): 37 µM
IC50 P388-D1 cells [15]: 4.8 mg/L (≈ 28.2 µM)
IC50 ([15]; converted from μg/mL): 27 µM
Antioxidant activity, ABTS^● Decolorization [4]: 0.972 ± 0.028 mol Trolox equivalents (TE)/mol compound
IC50 ([16]; converted): 89 µM
IC50 PC-3 prostate cancer cells [16]: 16 mg/L (≈ 94.1 µM)
IC50 [17]: 111 to 139 µM
IC50 ([18]; converted): 117 µM
IC50 LNCaP prostate cancer cells [18]: 21 mg/L (≈ 123 µM)
IC50 KB cells [19]: 13.2 mg/L (≈ 77.6 µM)
IC50 ([19]; converted from μg/mL): 73 µM
Concentration at which viability of SKOV-3 cells was lowered ([5]; 24 h exposure): 200 to 1000 µM
IC50 [5, 32]: 115 µM
Antioxidant activity, DPPH^● Decolorization [6]: 0.178 ± 0.023 mol Trolox equivalents (TE)/mol compound
IC50 ([20]; converted): 89 µM
IC50 DUI45 prostate cancer cells [20]: 16 mg/L (≈ 94.1 µM)
IC50 [21]: 111 to 139 µM
IC50 HeLa cells [22]: 6.1 mg/L (≈ 35.9 µM)
IC50 ([22]; converted from μg/mL): 34 µM
Antioxidant activity, FRAP [8]: 0.332 ± 0.001 mol Trolox equivalents (TE)/mol compound

O=c1c(O)c(-c2ccc(O)c(O)c2)oc2cc(O)cc(O)c12 [Quercetin]
Concentration at which viability of PEO1 cells was lowered ([1]; 24 h exposure): 75 to 200 µM
IC50 ([1]; PEO1, 24 h): 100 µM
IC50 [23]: ~40 µM
IC50 [24]: 32 to 55 µM
Concentration range with no significant decrease in viability of MRC-5 cells (MRC-5 fibroblasts; 24 h exposure): up to 200 µM
IC50 (MRC-5 fibroblasts; MRC5, 24 h): 111 µM
Antioxidant activity, ABTS^● Decolorization [4]: 1.138 ± 0.029 mol Trolox equivalents (TE)/mol compound
IC50 [25]: 35 µM
IC50 [26]: 20 µM
Concentration at which viability of SKOV-3 cells was lowered ([5]; 24 h exposure): 75 to 200 µM
IC50 ([5]; SK-OV-3, 24 h): 272 µM
Antioxidant activity, DPPH^● Decolorization [6]: 0.384 ± 0.040 mol Trolox equivalents (TE)/mol compound
Viability of MCF-7 cells (diminished to) (MCF-7 cells): ca. 70%
IC50 [27]: 32 to 55 µM
Viability of HCC1937 cells (diminished to) [28]: ca. 40%
IC50 [29]: 32 to 55 µM
IC50 [30]: 32 to 55 µM
Antioxidant activity, FRAP [8]: 1.350 ± 0.201 mol Trolox equivalents (TE)/mol compound
